The record followed here is patent publication US20100216802A1, “PTERIDINE DERIVATIVES AS POLO-LIKE KINASE INHIBITORS USEFUL IN THE TREATMENT OF CANCER” (CHROMA THERAPEUTICS LTD., priority 2006, published 2010).

In one experiment the target is T1, PLK1 (Homo sapiens, UniProt P53350).
T1 construct: purchased Invitrogen (Paisley, UK)
T1 sequence (P53350 whole entry): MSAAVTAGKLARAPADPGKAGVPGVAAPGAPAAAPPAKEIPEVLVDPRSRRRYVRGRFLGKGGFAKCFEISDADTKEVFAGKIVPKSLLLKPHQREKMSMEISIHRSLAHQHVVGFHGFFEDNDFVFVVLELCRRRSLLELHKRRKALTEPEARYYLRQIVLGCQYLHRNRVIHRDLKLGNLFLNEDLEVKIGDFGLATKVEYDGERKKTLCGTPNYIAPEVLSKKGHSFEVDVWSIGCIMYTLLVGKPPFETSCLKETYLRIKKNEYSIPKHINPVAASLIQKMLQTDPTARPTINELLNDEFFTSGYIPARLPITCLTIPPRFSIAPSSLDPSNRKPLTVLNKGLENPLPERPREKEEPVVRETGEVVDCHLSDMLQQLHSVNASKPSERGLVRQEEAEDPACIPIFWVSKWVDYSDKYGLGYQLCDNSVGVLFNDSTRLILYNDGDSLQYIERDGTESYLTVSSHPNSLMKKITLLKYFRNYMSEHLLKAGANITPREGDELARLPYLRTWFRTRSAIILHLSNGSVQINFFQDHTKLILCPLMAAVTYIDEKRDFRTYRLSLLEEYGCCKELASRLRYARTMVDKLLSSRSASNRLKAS
Description: PLK1 enzyme assay (Z'-LYTE, Invitrogen). Format: biochemical. The settings on record: ATP at or close to Km; read-out: Inhibitor Activity vs PLK1. The method, then:
The ability of compounds to inhibit PLK-1 kinase activity was measured in an assay performed by Invitrogen (Paisley, UK). The Z′-LYTE™ biochemical assay employs a fluorescence-based, coupled-enzyme format and is based on the differential sensitivity of phosphorylated and non-phosphorylated peptides to proteolytic cleavage. The peptide substrate is labelled with two fluorophores—one at each end—that make up a FRET pair. In the primary reaction, the kinase transfers the gamma-phosphate of ATP to a single serine or threonine residue in a synthetic FRET-peptide. In the secondary reaction, a site-specific protease recognizes and cleaves non-phosphorylated FRET-peptides. Phosphorylation of FRET-peptides suppresses cleavage by the Development Reagent. Cleavage disrupts FRET between the donor (i.e., coumarin) and acceptor (i.e., fluorescein) fluorophores on the FRET-peptide, whereas uncleaved, phosphorylated FRET-peptides maintain FRET. A […] method, which calculates the ratio (the Emission Ratio) of donor emission to acceptor emission after excitation of the donor fluorophore at 400 nm, is used to quantitate reaction progress.
The assay is performed at an ATP concentration at, or close to, the Km. After the 60 minute Kinase Reaction incubation at RT, 5 μL of a 1:8 dilution of Development Reagent is added. The assay plate is incubated for a further 60 minutes at RT and read on a fluorescence plate reader.
Duplicate data points are generated from a ⅓ log dilution series of a stock solution of test compound in DMSO. Nine dilutions steps are made from a top concentration of 10 μM, and a ‘no compound’ blank is included. Data is collected and analysed using XLfit software from IDBS.
Take `CC[C@@H]1C(=O)N(C)c2cnc(Nc3ccc(C(=O)NC4CCN(CC[C@@H](N)C(=O)OC5CCCC5)CC4)cc3OC)nc2N1C1CCCC1` [Example 31, Cyclopentyl (2R)-2-amino-4-{4-[(4-{((7R)-8-cyclopentyl-7-ethyl-5-methyl-6-oxo-5,6,7,8-tetra hydropteridin-2-yl]amino}-3-methoxybenzoyl)amino]piperidin-1-yl}butanoate]: the IC50 is under 100 nM.
With `CC[C@@H]1C(=O)N(C)c2cnc(Nc3ccc(C(=O)N[C@@H]4CN[C@H](C(=O)O)C4)cc3OC)nc2N1C1CCCC1` [Example 39, (4S)-4-[(4-{[(7R)-8-Cyclopentyl-7-ethyl-5-methyl-6-oxo-5,6,7,8-tetrahydropteridin-2-yl]amino}-3-methoxybenzoyl)amino]-L-proline], the IC50 was under 100 nM.
As for `CC[C@@H]1C(=O)N(C)c2cnc(Nc3ccc(OCC[C@H](N)C(=O)O)cc3OC)nc2N1C1CCCC1` [Example 37, O-(4-{[(7R)-8-Cyclopentyl-7-ethyl-5-methyl-6-oxo-5,6,7,8-tetrahydropteridin-2-yl]amino}-3-methoxyphenyl)-L-homoserine], the IC50 is under 100 nM.
`CC[C@@H]1C(=O)N(C)c2cnc(Nc3ccc(C[C@H](N)C(=O)O)cc3)nc2N1C1CCCC1` [Example 34, 4-{[(7R)-8-Cyclopentyl-7-ethyl-5-methyl-6-oxo-5,6,7,8-tetrahydropteridin-2-yl]amino}-L-phenylalanine]: the IC50 is under 100 nM.
On the same count and under the same terms, as for `CC[C@@H]1C(=O)N(C)c2cnc(Nc3ccc(C(=O)N4CCNC(C(=O)O)C4)cc3OC)nc2N1C1CCCC1` (stereo partly drawn) [Example 42, 4-(4-{[(7R)-8-Cyclopentyl-7-ethyl-5-methyl-6-oxo-5,6,7,8-tetrahydropteridin-2-yl]amino}-3-methoxybenzoyl)piperazine-2-carboxylic acid], the figure is under 100 nM; as for `CC[C@@H]1C(=O)N(C)c2cnc(Nc3ccc(C(=O)NC4C5CN(CC[C@H](N)C(=O)O)CC54)cc3OC)nc2N1C1CCCC1` (stereo partly drawn) [Example 45, (2S)-2-Amino-4-{6-[(4-{[(7R)-8-cyclopentyl-7-ethyl-5-methyl-6-oxo-5,6,7,8-tetrahydropteridin-2-yl]amino}-3-methoxybenzoyl)amino]-3-azabicyclo[3.1.0]hex-3-yl} butanoic acid], under 100 nM; as for `CC[C@@H]1C(=O)N(C)c2cnc(Nc3ccc(C(=O)NC4CCN(CC[C@H](N)C(=O)O)CC4)cc3F)nc2N1C1CCCC1` [Example 49, (2S)-2-Amino-4-{4-[(4-{[(7R)-8-cyclopentyl-7-ethyl-5-methyl-6-oxo-5,6,7,8-tetra hydropteridin-2-yl]amino}-3-fluorobenzoyl)amino]piperidin-1-yl}butanoic acid], under 100 nM.
Turning to `CC[C@@H]1C(=O)N(C)c2cnc(Nc3ccc(C(=O)NC4CCN(CCC[C@@H](N)C(=O)O)CC4)cc3OC)nc2N1C1CCCC1` [Example 47, 5-{4-[(4-{[(7R)-8-Cyclopentyl-7-ethyl-5-methyl-6-oxo-5,6,7,8-tetrahydropteridin-2-yl]amino}-3-methoxybenzoyl)amino]piperidin-1-yl}-D-norvaline], the IC50 is under 100 nM.
With `CC[C@@H]1C(=O)N(C)c2cnc(Nc3ccc(C(=O)NC4CCN(CC[C@H](N)C(=O)O)C4)cc3OC)nc2N1C1CCCC1` (stereo partly drawn) [Example 44, (2S)-2-amino-4-{3-[(4-{[(7R)-8-Cyclopentyl-7-ethyl-5-methyl-6-oxo-5,6,7,8-tetrahydropteridin-2-yl]amino}-3-methoxybenzoyl)amino]pyrrolidin-1-yl}butanoic acid], the IC50 was under 100 nM.
On the same count and under the same terms, as for `CC[C@@H]1C(=O)N(C)c2cnc(Nc3ccc(C(=O)N4CCNC(C(=O)O)C4)cc3OC)nc2N1C1CCCC1` (stereo partly drawn) [Example 52, 4-(4-{[(7R)-8-cyclopentyl-7-ethyl-5-methyl-6-oxo-5,6,7,8-tetrahydropteridin-2-yl]amino}-3-methoxbenzoyl)piperazine-2-carboxylic acid], the figure is under 100 nM; as for `CC[C@@H]1C(=O)N(C)c2cnc(Nc3ccc(C(=O)NCCCC[C@H](N)C(=O)O)cc3OC)nc2N1C1CCCC1` [Example 40, N^6-(4-{[(7R)-8-cyclopentyl-7-ethyl-5-methyl-6-oxo-5,6,7,8-tetrahydropteridin-2-yl]amino}-3-methoxybenzoyl)lysine], under 100 nM.
The same measure, in the same setting: with `CC[C@@H]1C(=O)N(C)c2cnc(Nc3ccc(C(=O)NCCN4CCNC(C(=O)O)C4)cc3OC)nc2N1C1CCCC1` (stereo partly drawn) [Example 43, 4-{2-[(4-{[(7R)-8-Cyclopentyl-7-ethyl-5-methyl-6-oxo-5,6,7,8-tetrahydropteridin-2-yl]amino}-3-methoxybenzoyl)amino]ethyl}piperazine-2-carboxylic acid] the figure was under 100 nM; with `CC[C@@H]1C(=O)N(C)c2cnc(Nc3ccc(C(=O)NC4CCN(CC[C@H](N)C(=O)O)CC4)cc3C)nc2N1C1CCCC1` [Example 48, (2S)-2-Amino-4-{4-[(4-{[(7R)-8-cyclopentyl-7-ethyl-5-methyl-6-oxo-5,6,7,8-tetra hydropteridin-2-yl]amino}-3-methylbenzoyl)amino]piperidin-1-yl}butanoic acid], under 100 nM.
On to `CC[C@@H]1C(=O)N(C)c2cnc(Nc3ccc(C(=O)NC4CCN(CCC[C@H](N)C(=O)O)CC4)cc3OC)nc2N1C1CCCC1` [Example 46, 5-{4-[(4-{[(7R)-8-Cyclopentyl-7-ethyl-5-methyl-6-oxo-5,6,7,8-tetrahydropteridin-2-yl]amino}-3-methoxybenzoyl)amino]piperidin-1-yl}-L-norvaline], for which the IC50 is under 100 nM.
In the case of `CC[C@@H]1C(=O)N(C)c2cnc(Nc3ccc(C(=O)Nc4ccc(C[C@H](N)C(=O)O)cc4)cc3OC)nc2N1C1CCCC1` [Example 33], the IC50 is under 100 nM.
On the same count and under the same terms, as for `CC[C@@H]1C(=O)N(C)c2cnc(Nc3ccc(C(=O)NCc4ccc(OCC[C@H](N)C(=O)O)cc4)cc3OC)nc2N1C1CCCC1` [Example 41, O-(4-{[(4-{[(7R)-8-Cyclopentyl-7-ethyl-5-methyl-6-oxo-5,6,7,8-tetrahydropteridin-2-yl]amino}-3-methoxybenzoyl)amino]methyl}phenyl)-L-homoserine], the figure is under 100 nM; as for `CC[C@@H]1C(=O)N(C)c2cnc(Nc3ccc(OCC[C@H](N)C(=O)O)cc3)nc2N1C1CCCC1` [Example 36, O-(4-{[(7R)-8-Cyclopentyl-7-ethyl-5-methyl-6-oxo-5,6,7,8-tetrahydropteridin-2-yl]amino}phenyl)-L-homoserine], under 100 nM; as for `CC[C@@H]1C(=O)N(C)c2cnc(Nc3ccc(/C=C/C[C@H](N)C(=O)O)cc3)nc2N1C1CCCC1` [Example 35, (2S,4E)-2-Amino-5-(4-{[(7R)-8-cyclopentyl-7-ethyl-5-methyl-6-oxo-5,6,7,8-tetrahydropteridin-2-yl]amino}phenyl)pent-4-enoic acid], under 100 nM.
Turning to `CCC1C(=O)N(C)c2cnc(Nc3ccc(C(=O)NCCC(N)C(=O)O)cc3OC)nc2N1C1CCCC1` [Example 38, (2S)-2-Amino-4-[(4-{[(7R)-8-cyclopentyl-7-ethyl-5-methyl-6-oxo-5,6,7,8-tetrahydropteridin-2-yl]amino}-3-methoxybenzoyl)amino]butananoic acid], the IC50 is under 100 nM.
Turning to `CC[C@@H]1C(=O)N(C)c2cnc(Nc3ccc(C(=O)NC4CCN(CC[C@@H](N)C(=O)O)CC4)cc3OC)nc2N1C1CCCC1` [Example 50, (2R)-2-Amino-4-{4-[(4-{[(7R)-8-cyclopentyl-7-ethyl-5-methyl-6-oxo-5,6,7,8-tetra hydropteridin-2-yl]amino}-3-methoxybenzoyl)amino]piperidin-1-yl}butanoic acid], the IC50 is under 100 nM.
With `CC[C@@H]1C(=O)N(C)c2cnc(Nc3ccc(C(=O)NC4CCN(CC[C@H](N)C(=O)O)CC4)cc3OC)nc2N1C1CCCC1` [Example 53, (2S)-2-amino-4-{4-[(4-{[(7R)-8-cyclopentyl-7-ethyl-5-methyl-6-oxo-5,6,7,8-tetrahydropteridin-2-yl]amino}-3-methoxybenzoyl)amino]piperidin-1-yl}butanoic acid], the IC50 is under 100 nM.
Turning to `CC[C@@H]1C(=O)N(C)c2cnc(Nc3ccc(C(=O)NC4CCN(CC[C@H](N)C(=O)O[C@@H]5C[C@H](C)CC[C@H]5C(C)C)CC4)cc3OC)nc2N1C1CCCC1` [Example 32], the IC50 was under 100 nM.

The same experiment, now with this note: acid of the ester; read-out: Inhibition of PLK (IC50, nM) acid.
With `CC[C@@H]1C(=O)N(C)c2cnc(Nc3ccc(C(=O)NC4CCN(CC[C@H](N)C(=O)O)CC4)cc3OC)nc2N1C1CCCC1` [Example 53, (2S)-2-amino-4-{4-[(4-{[(7R)-8-cyclopentyl-7-ethyl-5-methyl-6-oxo-5,6,7,8-tetrahydropteridin-2-yl]amino}-3-methoxybenzoyl)amino]piperidin-1-yl}butanoic acid], the IC50 came out at 6 nM.

The subject of a further experiment is HCT 116 cell line. Put plainly: Cell inhibition assay method A (WST-1, 120 hrs). Format: cell-based. Particulars: Homo sapiens, HCT-116, method A, read-out: Inhibitor Activity vs HCT 116 cell line (method A). The method, then:
Cell inhibition assays were carried out using either method A or method B
Cells were seeded in 96W tissue culture plates (1 well=30 mm^2) at a density of […] per well in 50 μL of the appropriate culture medium (see below). 24 hrs later […] of the compound prepared in the same medium was added as 4 fold dilutions to give final concentrations in the range 0.15 nM-2500 nM (n=6 for each concentration). The plates were then incubated at 37° C., 5% CO2 for 120 hrs. Cell proliferation was assessed using WST-1 (a metabolic indicator dye, Roche Cat no. 1 644 807) according to the manufacturers instructions. The results were calculated as percentage of vehicle response and IC50 values represent the concentration of compound that inhibited the vehicle response by 50%.
HCT-116 culture medium —Dulbeccos MEM (Sigma D6546) plus 10% heat inactivated fetal calf serum (Hyclone SH30071 Thermo Fischer Scientific) containing 2 mM Glutamine (Sigma cat no G-7513) and 50 U/ml Penicillin and Streptomycin Sulphate (Sigma Cat no P-0781).
`CC[C@@H]1C(=O)N(C)c2cnc(Nc3ccc(C(=O)NC4CCN(CC[C@@H](N)C(=O)OC5CCCC5)CC4)cc3OC)nc2N1C1CCCC1` [Example 31, Cyclopentyl (2R)-2-amino-4-{4-[(4-{((7R)-8-cyclopentyl-7-ethyl-5-methyl-6-oxo-5,6,7,8-tetra hydropteridin-2-yl]amino}-3-methoxybenzoyl)amino]piperidin-1-yl}butanoate]: the IC50 is under 100 nM.
